The source of these data is patent US10626126B2, “Compounds” (Pulmocide Limited, priority 2016, dated 2020).

The term CC50 denotes the concentration giving 50% cytotoxicity. A high value points to better tolerance by the cells. In general, IC50 refers to the concentration that gives 50% inhibition. The low end stands for higher potency, the high end for lower potency. In general, inhibition refers to the drop in the measured response relative to a control, in per cent. A lower inhibition goes with a weak effect.

Assay type in all cases: cell-based
Series [1] is described as follows: Cell viability: resazurin assay. The following applies: human, HEp2 cells. How it is done: HEp2 cells were seeded in 384-well plates (10^3/well/50 μL; BD Falcon Ref 353962) in FBS DMEM (5%, containing 2 mM L-glutamine and 1 mM sodium pyruvate) one day before experimentation. Serum-free DMEM (50 μL) was added to test wells, while for control wells the media was removed and sterile water (100 μL) added. Test compounds (0.5 μL DMSO solution) were added to give a final DMSO concentration of 0.5%. HEp2 cells were incubated with each test compound for 5 days (37° C./5% CO2 in 2.5% FBS) and then resazurin stock solution (5 μL; 0.03%) was added to each well and the plate incubated for a further 6 hr (37° C./5% CO2). The fluorescence of each well at 545 nm (excitation) and 590 nm (emission) was determined using a multi-scanner (Clariostar: BMG Labtech). The percentage loss of cell viability was calculated for each well relative to vehicle (0.5% DMSO) treatment. Note that any apparent increase in cell viability associated with test compound treatment relative to vehicle is consequently tabulated as a negative percentage. Where appropriate, a CC50 value was calculated from the concentration-response curve generated from the concentration-response curve for each test compound.

Series [2] has as its system RSV B Washington strain. Kind of series: RSV B induced CPE in HEp2 cells. Conditions: human respiratory syncytial virus; for IC50: HEp-2, 144 h, 6 days; for inhibition at 0.1 µg/mL: HEp-2, at 0.1 μg/mL; for inhibition at 1 µg/mL: HEp-2, at 1 μg/mL. How it is done: (§1) HEp2 cells were seeded (10^3/well/50 μL) in 384-well plates (Catalogue number 353962, BD Falcon, Oxford, UK) in 5% FBS-DMEM (containing 2 mM L-glutamine and 1 mM sodium pyruvate) one day before infection. […] Simultaneously, test compounds (0.5 μL DMSO solution) were added to 100 μL of HEp2 cell culture with virus solution to provide a final DMSO solution of 0.5%. […] Sigma-Aldrich, Dorset, UK) was added to each well and the plate incubated for a further 6 hr (37° C./5% CO2). The fluorescence of each well [545 nm (excitation)/590 nm (emission)] was determined using a multi-scanner (Clariostar: BMG, Buckinghamshire, UK). The percentage inhibition for each well was calculated and the IC50, IC75 and IC90 values were calculated from the concentration-response curve generated for each test compound.

Series [3] deals with RSV A2 strain. The experiment in a line: RSV A2 induced CPE in HEp2 cells. The following applies: human respiratory syncytial virus; for IC50: HEp-2, 120 h, 5 days; for inhibition at 0.01 µg/mL: HEp-2, at 0.01 μg/mL. How it is done:
as §1

For the molecule `Cc1cccc(F)c1NC(=O)c1cc2c(s1)-c1sccc1N(C(=O)c1ccc(NC(=O)c3cc4c(nc3N3CC5(CCOCC5)C3)CCC4)cc1)CC2` [Example 24, 4-(4-(2-(7-oxa-2-azaspiro[3.5]nonan-2-yl)-6,7-dihydro-5H-cyclopenta[b]pyridine-3-carboxamido)benzoyl)-N-(2-fluoro-6-methylphenyl)-5,6-dihydro-4H-dithieno[3,2-b:2′,3′-d] azepine-8-carboxamide], the CC50 at 5 days in series [1] is more than 13.4 µM. Moreover, in series [2], 0.011 µM corresponded to half-maximal inhibition (IC50) and at 0.1 µg/mL the inhibition was 84%. Also, in series [3], half-maximal inhibition (IC50) required 0.00054 µM and 0.01 µg/mL produced 98% inhibition.

`O=C(Nc1c(F)cccc1F)c1cc2c(s1)-c1sccc1N(C(=O)c1ccc(NC(=O)c3cc4c(nc3N3CC5(CCOCC5)C3)CCOC4)cc1)CC2` [Example 25, N-(4-(8-((2,6-difluorophenyl)carbamoyl)-5,6-dihydro-4H-dithieno[3,2-b:2′,3′-d]azepine-4-carbonyl)phenyl)-2-(7-oxa-2-azaspiro[3.5]nonan-2-yl)-7,8-dihydro-5H-pyrano[4,3-b]pyridine-3-carboxamide] displayed a CC50 at 5 days in series [1] of more than 13 µM. In series [2], this molecule registered a concentration for half-maximal inhibition (IC50) of 0.01 µM and an inhibition at 0.1 µg/mL of 89%. In series [3], this molecule yielded an IC50 of 0.00018 µM and an inhibition at 0.01 µg/mL of 100%.

As for `Cc1cccc(F)c1NC(=O)c1cc2c(s1)-c1sccc1N(C(=O)c1ccc(NC(=O)c3cc4c(nc3N3CC5(CCOCC5)C3)CCOC4)cc1)CC2` [Example 26, N-(4-(8-((2-fluoro-6-methylphenyl)carbamoyl)-5,6-dihydro-4H-dithieno[3,2-b:2′,3′-d]azepine-4-carbonyl)phenyl)-2-(7-oxa-2-azaspiro[3.5]nonan-2-yl)-7,8-dihydro-5H-pyrano[4,3-b]pyridine-3-carboxamide], the CC50 at 5 days in series [1] was more than 13.1 µM. In series [2], this molecule had a 50% inhibitory concentration (IC50) of 0.017 µM and an inhibition at 0.1 µg/mL of 93%. Besides, in series [3], the IC50 came to 0.001 µM and the inhibition at 0.01 µg/mL was determined as 98%.

The molecule `O=C(Nc1c(F)cccc1F)c1cc2c(s1)-c1sccc1N(C(=O)c1ccc(NC(=O)c3cc4ccccc4nc3N3CC4(CCOCC4)C3)cc1)CC2` [Example 27, 4-(4-(2-(7-oxa-2-azaspiro[3.5]nonan-2-yl)quinoline-3-carboxamido)benzoyl)-N-(2,6-difluorophenyl)-5,6-dihydro-4H-dithieno[3,2-b:2′,3′-d]azepine-8-carboxamide] came in with a 50% cytotoxic concentration (CC50) at 5 days in series [1] of more than 13.1 µM. For the same molecule, in series [2], the IC50 came to 0.032 µM and at 1 µg/mL the inhibition was 93%. Further, in series [3], 0.00063 µM corresponded to half-maximal inhibition (IC50) and the inhibition at 0.01 µg/mL came out at 94%.

In turn, `O=C(Nc1c(F)cccc1F)c1cc2c(s1)-c1sccc1N(C(=O)c1ccc(NC(=O)c3cc4sccc4nc3N3CC4(CCOCC4)C3)cc1F)CC2` [Example 28, 4-(4-(5-(7-oxa-2-azaspiro[3.5]nonan-2-yl)thieno[3,2-b]pyridine-6-carboxamido)-2-fluorobenzoyl)-N-(2,6-difluorophenyl)-5,6-dihydro-4H-dithieno[3,2-b:2′,3′-d] azepine-8-carboxamide] registered a half-maximal cytotoxic concentration (CC50) at 5 days in series [1] of more than 12.7 µM. In series [2], this molecule gave a concentration for half-maximal inhibition (IC50) of 0.015 µM and an inhibition at 0.1 µg/mL of 92%. In series [3], this molecule gave an IC50 of 0.00048 µM and an inhibition at 0.01 µg/mL of 89%.

On to `O=C(Nc1c(F)cccc1F)c1cc2c(s1)-c1sccc1N(C(=O)c1ccc(NC(=O)c3cccnc3N3CCC4(CC3)COC4)cc1)CC2` [Example 29, 4-(4-(2-(2-oxa-7-azaspiro[3.5]nonan-7-yl)nicotinamido)benzoyl)-N-(2,6-difluorophenyl)-5,6-dihydro-4H-dithieno [3,2-b:2′,3′-d]azepine-8-carboxamide], for which, in series [1], the cytotoxic concentration (CC50) at 5 days was more than 14 µM. In series [2], this molecule gave an IC50 of 0.49 µM and an inhibition at 1 µg/mL of 51%. In series [3], the half-maximal inhibitory concentration (IC50) was 0.0036 µM and at 0.01 µg/mL the inhibition was 100%.

The molecule `Cc1cnc(N2CCC3(CC2)COC3)c(C(=O)Nc2ccc(C(=O)N3CCc4cc(C(=O)Nc5c(F)cccc5F)sc4-c4sccc43)cc2)c1` [Example 30, N-(2,6-difluorophenyl)-4-(4-(5-methyl-2-(2-oxa-7-azaspiro[3.5]nonan-7-yl)nicotinamido)benzoyl)-5,6-dihydro-4H-dithieno[3,2-b:2′,3′-d]azepine-8-carboxamide] displayed a CC50 at 5 days in series [1] of more than 13.8 µM. Moreover, in series [2], inhibition was half-maximal at 0.13 µM (IC50) and 1 µg/mL produced 100% inhibition. In series [3], this molecule showed an IC50 of 0.00042 µM and an inhibition at 0.01 µg/mL of 100%.

Regarding `O=C(Nc1c(F)cccc1F)c1cc2c(s1)-c1sccc1N(C(=O)c1ccc(NC(=O)c3cccnc3N3CC4(COC4)C3)cc1)CC2` [Example 31, 4-(4-(2-(2-oxa-6-azaspiro[3.3]heptan-6-yl)nicotin-amido)benzoyl)-N-(2,6-difluorophenyl)-5,6-dihydro-4H-dithieno[3,2-b:2′,3′-d]azepine-8-carboxamide], the cytotoxic concentration (CC50) at 5 days in series [1] was more than 14.6 µM. In series [2], this molecule returned an IC50 of 1.05 µM and an inhibition at 1 µg/mL of 57%. In series [3], this molecule returned a 50% inhibitory concentration (IC50) of 0.0108 µM and an inhibition at 0.01 µg/mL of 62%.

On to `Cc1cnc(N2CC3(COC3)C2)c(C(=O)Nc2ccc(C(=O)N3CCc4cc(C(=O)Nc5c(F)cccc5F)sc4-c4sccc43)cc2)c1` [Example 32, N-(2,6-difluorophenyl)-4-(4-(5-methyl-2-(2-oxa-6-azaspiro[3.3]heptan-6-yl)nicotinamido)benzoyl)-5,6-dihydro-4H-dithieno[3,2-b:2′,3′-d]azepine-8-carboxamide], for which, in series [1], the CC50 at 5 days was more than 14.3 µM. Further, in series [2], the half-maximal inhibitory concentration (IC50) stood at 0.602 µM and the inhibition at 1 µg/mL stood at 90%. Further, in series [3], it took 0.00059 µM to reach half-maximal inhibition (IC50) and the inhibition at 0.01 µg/mL was determined as 100%.

With `O=C(Nc1c(F)cccc1F)c1cc2c(s1)-c1sccc1N(C(=O)c1ccc(NC(=O)c3cccnc3N3CCC4(CCOCC4)CC3)cc1)CC2` [Example 33, 4-(4-(2-(3-oxa-9-azaspiro[5.5]undecan-9-yl)nicotin amido)benzoyl)-N-(2,6-difluorophenyl)-5,6-dihydro-4H-dithieno[3,2-b:2′,3′-d]azepine-8-carboxamide], the 50% cytotoxic concentration (CC50) at 5 days in series [1] is more than 13.5 µM. Also, in series [2], the concentration for half-maximal inhibition (IC50) is more than 1.35 µM and the inhibition at 1 µg/mL worked out at 23%. Besides, in series [3], the concentration for half-maximal inhibition (IC50) worked out at 0.0014 µM and 0.01 µg/mL produced 100% inhibition.

Consider `Cc1cnc(N2CCC3(CCOCC3)CC2)c(C(=O)Nc2ccc(C(=O)N3CCc4cc(C(=O)Nc5c(F)cccc5F)sc4-c4sccc43)cc2)c1` [Example 34, N-(2,6-difluorophenyl)-4-(4-(5-methyl-2-(3-oxa-9-azaspiro[5.5]undecan-9-yl)nicotinamido)benzoyl)-5,6-dihydro-4H-dithieno[3,2-b:2′,3′-d]azepine-8-carboxamide], for which the CC50 at 5 days in series [1] is more than 13.3 µM. In series [2], this molecule gave an IC50 of more than 1.33 µM and an inhibition at 1 µg/mL of 9%. In series [3], this molecule returned a concentration for half-maximal inhibition (IC50) of 0.0044 µM and an inhibition at 0.01 µg/mL of 100%.
